Results: ChEMBL document CHEMBL5154848, “Synthesis of heterocyclic ring-fused analogs of HMG499 as novel degraders of HMG-CoA reductase that lower cholesterol” (Eur J Med Chem, 2022)

Assays:
[1] = Downregulation of lovastatin-induced HMGCR expression in CHO-K1 cells assessed as fold change in HMGCR expression at 3 uM incubated for 16 hrs by immunoblot analysis (reference value: 15.2); assay type: functional, Cricetulus griseus
[2] = test system: CHO-K1; experiment: Downregulation of lovastatin-induced HMGCR expression in CHO-K1 cells incubated for 16 hrs by immunoblot analysis; assay type: functional, cell-based; conditions: Cricetulus griseus, dose 1-10 µM, DDE = dose-dependent effect
[3] = target: T1, 3-hydroxy-3-methylglutaryl-coenzyme A reductase (Homo sapiens) (UniProt P04035); experiment: Induction of HMGCR-T7 (unknown origin) degradation transfected in CHO-K1 cells assessed as HMGCR ubiquitination preincubated in sterol-depleted medium for 16 hrs followed by compound addition and measured after 4 hrs in presence of MG-132 by immuno-precipicitation analysis; assay type: cell-based; conditions: DDE = dose-dependent effect
T1 sequence (whole entry): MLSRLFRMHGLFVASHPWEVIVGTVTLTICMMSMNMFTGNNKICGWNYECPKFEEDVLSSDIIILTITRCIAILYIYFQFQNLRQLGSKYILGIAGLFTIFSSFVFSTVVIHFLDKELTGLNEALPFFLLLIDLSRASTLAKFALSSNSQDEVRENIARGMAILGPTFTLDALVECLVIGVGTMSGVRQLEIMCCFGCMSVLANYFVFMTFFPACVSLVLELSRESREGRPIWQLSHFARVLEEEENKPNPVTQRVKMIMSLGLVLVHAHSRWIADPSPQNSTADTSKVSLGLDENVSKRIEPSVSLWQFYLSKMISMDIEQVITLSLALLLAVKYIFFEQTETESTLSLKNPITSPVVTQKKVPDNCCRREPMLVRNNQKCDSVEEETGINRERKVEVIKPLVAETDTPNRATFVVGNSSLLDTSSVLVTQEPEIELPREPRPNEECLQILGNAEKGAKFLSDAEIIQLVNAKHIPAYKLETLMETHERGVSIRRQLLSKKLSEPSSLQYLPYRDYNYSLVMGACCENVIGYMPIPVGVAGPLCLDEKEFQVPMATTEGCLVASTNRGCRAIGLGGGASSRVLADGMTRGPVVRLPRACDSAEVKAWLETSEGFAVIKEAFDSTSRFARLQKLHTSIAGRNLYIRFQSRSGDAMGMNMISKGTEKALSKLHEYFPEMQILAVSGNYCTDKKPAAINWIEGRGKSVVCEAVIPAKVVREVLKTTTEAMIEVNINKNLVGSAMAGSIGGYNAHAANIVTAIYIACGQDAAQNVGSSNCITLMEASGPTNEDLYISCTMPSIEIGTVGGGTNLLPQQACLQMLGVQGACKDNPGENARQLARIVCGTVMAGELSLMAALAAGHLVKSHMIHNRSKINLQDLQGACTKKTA

[4] = test system: LX-2; experiment: Downregulation of TGF-beta-1-induced alpha-SMA protein level in serum starved human LX2 cells pretreated with TGF-beta-1 for 6 hrs followed by compound treatment for 24 hrs by Western blot analysis; assay type: functional, cell-based; conditions: DDE = dose-dependent effect
[5] = test system: RAW264.7; experiment: Downregulation of LPS-stimulated cholesterol levels in mouse RAW264.7 cells pretreated with LPS for 2 hrs followed by compound treatment for 24 hrs; assay type: functional, cell-based; conditions: dose <= 2.0 µM, DDE = dose-dependent effect

Activity [3]: Dde
SMILES: CC(=O)n1ncc2c1C(C)(C)C1=CC[C@H]3[C@@H]4CC[C@H]([C@H](C)CCC(=O)N5CCOCC5)[C@@]4(C)CC[C@@H]3[C@@]1(C)C2
fold change (FC) [1]: 1 | Activity [2]: Dde | Activity [4]: Dde | Activity [5]: Dde
